The subject of the test is CEM cells HIV-1 protection, formazan growth assay. In words: NCI AIDS Antiviral Assay. To be noted: for IC50: measured here: growth of uninfected CEM cells. An outline of the steps: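 Screen of anti-HIV-1 activity in human CEM cells using a formazan-based growth measurement at five drug concentrations. Hits with 50% or greater protection were repeated, and confirmation required reproducible complete protection.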

This is an account of results in PubChem BioAssay AID179 (DTP/NCI, 2004).

“And” between values parts separate entries of the source, which are not always exact repeats. Equal values may be shown once. The source made the active and inactive calls.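 How the source made its calls: active means compounds giving half or more protection of infected cells from virus-caused growth loss, again on retest; inactive means the rest.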

Take `CCC(=O)CC(=O)CCC(=O)Nc1cc(C)ccc1C`: the outcome was inactive.
As for `COC(=O)C1C2CCCN2OC1(C)CO` (centres undefined), the EC50 was over 200 µM and the 50% inhibitory concentration (IC50) is over 200 µM.
In the case of `Cn1ccc(C(=O)NCCN(CCNC(=O)c2ccn(C)c(=O)c2O)CCNC(=O)c2cccc(=O)n2O)c(O)c1=O`, the EC50 is over 200 µM and the IC50 was over 200 µM.
Take `Cc1nc(-c2ccccc2)c(C)n2c1nc1ccccc12`: the EC50 was over 200 µM and the IC50 is 28.8 µM.
With `O=C(NCc1cc(CNC(=O)c2cccc(O)c2O)cc(CNC(=O)c2cccc(O)c2O)c1)c1cccc(O)c1O`, the EC50 is over 200 µM and the IC50 is 1.95 µM.
Turning to `COc1cc2c(c(OC)c1OC)-c1ccc(NCCCNc3ccc4c(cc3=O)C(NC(C)=O)CCc3cc(OC)c(OC)c(OC)c3-4)c(=O)cc1C(NC(C)=O)CC2` (centres undefined), the outcome was inactive.
With `Cn1nc2ccc([N+](=O)[O-])c(Cn3nnc4ccccc43)c2n1`, the EC50 is over 200 µM and the IC50 stood at 58.9 µM.
The corresponding values for `CCN=C(NC(=O)c1c(Cl)cccc1Cl)SCSC(=NCC)NC(=O)c1c(Cl)cccc1Cl` are over 200 µM and 170 µM.
Take `COc1ccc(N2C(=O)C3c4[nH]c5cc(C)ccc5c4C4CCC(C(C)(C)C)CC4C3C2=O)cc1` (centres undefined): the EC50 is over 200 µM and the IC50 was 105 µM.
`CCc1cc(C(N)=S)ccn1`: the EC50 is over 200 µM and the IC50 is over 200 µM.
As to `O=C(O)c1cscc1Cc1ccccc1`, the EC50 was over 200 µM and the IC50 is over 200 µM.
As to `C/C(=N\NC(=S)NNC(=S)N(C)c1ccccc1)c1ccccn1`, the EC50 was over 52.5 µM and the IC50 was determined as 0.427 µM.
As for `O=Nc1c(-c2ccccc2)nnc(-c2ccccc2)c1N=O`, the EC50 was over 9.33 µM and the IC50 is over 9.33 µM.
`O=C(Nc1ccccc1)N(CCN(Cc1ccccc1)C(=O)Nc1ccccc1)CCN(Nc1ccccc1)C(=O)Nc1ccccc1`: the EC50 is over 200 µM and the IC50 was over 200 µM.
As for `COc1ccc2c(c1)-c1oc3ccccc3c(=O)c1CO2`, the EC50 was over 200 µM and the IC50 was 32.4 µM.
`O=C(Nc1ccccc1)c1cc2ccccc2oc1=O`: the EC50 is over 100 µM and the IC50 is over 100 µM.
With `CCOP1(=O)OCC(C(C)(C)C)CO1` (centres undefined), the EC50 is over 200 µM and the IC50 is over 200 µM.
Regarding `CSC1=C(C#N)C(c2ccccc2)CC(=O)N1` (centres undefined), the EC50 was over 200 µM and the IC50 was over 200 µM.
With `COC(=O)c1nc(NC#N)[nH]c(=O)c1C`, the EC50 is over 34.7 µM and the IC50 was over 34.7 µM.
For `COc1cc(C2[C@H]3C(=O)N(c4ccc(Cc5ccc(N6C(=O)[C@@H]7ON(c8ccccc8)C(c8cc(OC)c(OC)c(OC)c8)[C@@H]7C6=O)cc5)cc4)C(=O)[C@H]3ON2c2ccccc2)cc(OC)c1OC` (some centres undefined), the EC50 is over 5.62 µM and the IC50 is over 5.62 µM.
Regarding `N#Cc1ccc(N2CCOCC2)cc1`, the EC50 is 195 µM and the IC50 was over 200 µM.
With `Cc1nn2cnnc2s1`, the EC50 is over 501 µM and the IC50 is over 501 µM.
Turning to `O=S(=O)(SCCO)c1ccccc1`, the EC50 was over 813 µM and the IC50 stood at 57.5 µM.
Take `Cc1ccc(C)c(COCCOCn2cc(N3CCOCC3)c(=O)[nH]c2=O)c1`: the EC50 is over 200 µM and the IC50 is over 200 µM.
For `CCC(CC)n1cc(C(=O)NC(=O)NCCCCCOC(=O)CCCCCCCCCCC(=O)OCCCCCNC(=O)NC(=O)c2cn(C(CC)CC)c(=O)[nH]c2=O)c(=O)[nH]c1=O`, the EC50 was over 20.9 µM and the half-inhibitory concentration (IC50) was over 20.9 µM.
Consider `CC(O)CC(O)(C(F)(F)F)C(F)(F)F` (centres undefined), for which the EC50 is over 200 µM and the IC50 was over 200 µM.
On to `CC(C)c1cc(C(C)C)c(B(c2ccccc2)c2ccccc2)c(C(C)C)c1B(c1ccccc1)c1ccccc1`, for which the EC50 is over 100 µM and the IC50 was over 100 µM.
In turn, `Nc1ccn(C2CCC(CO)O2)c(=O)n1` (centres undefined) yielded an EC50 of 4.68 µM and an IC50 of 13.5 µM.
The matching figures for `CCc1cccc(CC)c1N1C(=O)C2=C(SCCCS2)C1=O`: over 44.7 µM and 24 µM.
The corresponding values for `COC(=O)C1(C(=O)OC)CC(=O)c2c(OC(=O)c3cccc(OC)c3C#N)ccc(OC(=O)c3cccc(OC)c3C#N)c2C1` are over 200 µM and 29.5 µM.
For `O=C1/C(=C/c2ccccc2)CCc2ccc([N+](=O)[O-])cc21`, the EC50 was over 200 µM and the IC50 was 11.2 µM.
The corresponding values for `CC(=O)NC(CCC(=O)C=[N+]=N)C(=O)O` (centres undefined) are over 200 µM and 29.5 µM.
For `CC(C)(C)C1CCC2(N3CCOCC3)C(C#N)CC2C1` (centres undefined), the EC50 is over 794 µM; the IC50 is 89.1 µM and > 794 µM.
Turning to `CCC1(c2ccc(OC)c(OC)c2)CCN(S(=O)(=O)c2ccc(C)cc2)C1` (centres undefined), the EC50 was over 200 µM and the IC50 was over 200 µM.
For `CC(C)=CCC/C(C)=C/CC12OC(C)(C)C(Cl)CC1(Cl)C(=O)c1c(O)cc(O)cc1C2=O` (centres undefined), the EC50 is over 37.2 µM and the IC50 was 11 µM.
Turning to `Cc1ccc(S(=O)(=O)C(CC(=O)N2CCCC2)C(=O)c2ccccc2)cc1` (centres undefined), the EC50 was over 93.3 µM and the IC50 was 15.5 µM.
For `O=[N+]([O-])c1ccc(/C=c2\sc3scc(-c4ccc([N+](=O)[O-])cc4)[n+]3\c2=C/c2ccc([N+](=O)[O-])cc2)cc1`, the EC50 was over 200 µM and the IC50 was determined as 97.7 µM.
As for `COc1ccc2c(c1)CC[C@@H]1[C@@H]2CC[C@]2(C)[C@H](O)[C@H](O)C[C@@H]12`, the EC50 was over 200 µM and the IC50 was 32.4 µM.
For the compound `COc1ccc(N(CN2C(=O)CCC2C(=O)O)C(C)=O)cc1` (centres undefined), the outcome was inactive.
Turning to `COC(=O)c1c(C)cc(OC(=O)c2c(C)cc(O)c(/C=N\Nc3ccccc3)c2O)c(C)c1O`, the EC50 is over 200 µM and the IC50 was found to be 9.77 µM.
The corresponding values for `Nc1nc(N)nc(CC(=O)O)n1` are over 200 µM and over 200 µM.
`CN(N)/N=N/c1nc[nH]c1[N+](=O)[O-]`: the EC50 is over 200 µM and the IC50 worked out at 5.62 µM.
The corresponding values for `Cc1cn(C2CC(O)C(COC(=O)CCCCCCCCCCCN=[N+]=[N-])O2)c(=O)[nH]c1=O` (centres undefined) are 10 µM and 21.4 µM.
The matching figures for `CCCCCCCCCCCCCC(=O)OCC1OC(OC)C(NC(=O)N(CCCl)N=O)C(O)C1O` (centres undefined): over 18.6 µM and 12 µM.
Regarding `O=[N+]([O-])/C(C(Cl)=C(Cl)Cl)=C(/Sc1ccccc1)N1CCCCC1`, the EC50 is over 195 µM and the IC50 worked out at 12.9 µM.
The matching figures for `CCOC(=O)Nc1cc2c(c(N)n1)N=C(c1ccccc1)CN2`: over 0.17 µM and 0.0316 µM.
For the compound `O=S(=O)(F)c1ccccc1C[P+](c1ccccc1)(c1ccccc1)c1ccccc1`, the EC50 is over 200 µM and the IC50 was 17.8 µM.
As to `Cc1cc2c(c(C)c1O)C(C)(C)CN2C(=O)C(C)(C)C`, the EC50 was over 200 µM and the IC50 was 74.1 µM.
Consider `O=C1C(O)=C(c2ccccc2)S(=O)(=O)C1c1ccccc1` (centres undefined), for which the EC50 is over 200 µM and the IC50 was 79.4 µM.
Take `CCOC(=O)/C=C1\c2ccccc2C(=O)N1CC(=O)OCC`: the result was inactive.
On to `O=[N+]([O-])c1cc(I)cc(/C=N/NS(=O)(=O)c2ccc(Cl)cc2)c1O`, for which the EC50 was over 372 µM and the IC50 turned out to be 66.1 µM.
On to `O=S(=O)(O)c1ccc(SSc2ccc(S(=O)(=O)O)cc2)cc1`, for which the EC50 was over 200 µM and the IC50 is over 200 µM.
Take `COC(=O)C1C=CN(N(C)C)C2=C1C(=O)c1c(O)cccc1C2=O` (centres undefined): the EC50 is over 200 µM and the IC50 came to 1.74 µM.
The matching figures for `COc1cccc(/C=N/[N-]C(N)=O)c1[O-].[Cu+2].[OH3+].c1cnc2c(c1)ccc1cccnc12`: over 39.8 µM and 16.2 µM.
The matching figures for `CCOC(=O)C1(C/C=C\CBr)CCCC1=O` (centres undefined): over 200 µM and 33.9 µM.
Regarding `[N-]=[N+]=Nc1c([N+](=O)[O-])c(=O)n2c3c(cccc13)CCC2`, the outcome was inactive.
Regarding `COC(=O)/C=C\C(C#N)(C#N)N=Cc1sccc1C`, the EC50 was 0.11 µM and the IC50 came to 0.398 µM.
The matching figures for `CC(C)(C)OC(=O)[C@H]1CCC(=S)N1Cc1ccccc1`: over 200 µM and over 200 µM.
For the compound `CCCCn1/c(=N/C(=S)N(C)C)ss/c1=N\C(=S)N(C)C`, the result was inactive.
For `CC1OC(Oc2ccc3c(=O)c(-c4ccc(O)cc4)coc3c2)C(O)C(O)C1O` (centres undefined), the EC50 is over 200 µM and the IC50 was found to be 93.3 µM.
The corresponding values for `O=c1c(Cc2ccccc2)c(-c2ccccc2)[nH]n1C1=NCCN1` are over 200 µM and 19.1 µM.
The matching figures for `O=c1[nH]c(-c2ccccc2)nc2c1sc1nc3ccccc3n12`: over 50.1 µM and over 50.1 µM.
Regarding `CCN(CC)CCCNc1cnnc2cc(Cl)ccc12`, the EC50 is over 363 µM and the IC50 was 83.2 µM.
Consider `O=C1C=C(C2CCCO2)C(=O)c2c(O)ccc(O)c21` (centres undefined), for which the result was inactive.
Turning to `Cc1[nH]nc2c1NC(=O)OCC2`, the EC50 was over 550 µM and the IC50 was over 550 µM.
`CC1=NN(C(=O)CC(=O)Nc2ccc(C)cc2)C(=O)C1N=Nc1ccc(S(N)(=O)=O)cc1` (centres undefined): the EC50 was over 0.631 µM and the IC50 is over 0.631 µM.
In the case of `CC(=O)NC1(C)C(C)C2CC1C(C)C2(C)C` (centres undefined), the EC50 is over 85.1 µM and the IC50 was over 85.1 µM.
In the case of `S=C(N/N=C/c1ccccc1Cl)Nc1ccccc1`, the EC50 was over 200 µM and the IC50 was determined as 135 µM.
For the compound `CC[C@](O)(CC(=O)O[C@H]1C(=O)O[C@@H]2C[C@H]3C(C)=CC(=O)[C@@H](O)[C@]3(C)[C@H]3[C@@]4(O)OC[C@]32[C@@H]1[C@@H](C)[C@H]4O)C(C)C`, the EC50 is over 0.2 µM and the IC50 is 0.00363 µM.
The matching figures for `Cc1n(CC(C)C)c2c([n+]1CC(=O)c1ccc([N+](=O)[O-])cc1)C(=O)c1ccccc1C2=O`: over 4.9 µM and 0.0288 µM.
Regarding `FC(F)(F)c1cccc(C2SCc3nc4ccccc4n32)c1` (centres undefined), the outcome was inactive.

As a reminder, the EC50 is the concentration at which the effect is half-maximal. Broadly, the IC50 is the concentration that inhibits the measured activity by half.
